Reference: US11629171B2, “Beta-hairpin peptidomimetics” (POLYPHOR AG, priority 2017, dated 2023)
In brackets after ≈: the same amount, converted by molar mass. Where a SMILES comes first, the peptide text is derived from it. Bridges are numbered along the chain shown (N, C = ends). Roman numbers before positions name the chains, in order. [ ]: non-standard residue; d: D form. Thr(ol) = C[C@@H](O)[C@H](N)CO; Pen = CC(C)(S)[C@H](N)C(=O)O; Tle = CC(C)(C)[C@H](N)C(=O)O; Hiv = CC(C)[C@H](O)C(=O)O; dDab = NCC[C@@H](N)C(=O)O; hSer = N[C@@H](CCO)C(=O)O; Orn = NCCC[C@H](N)C(=O)O; Dab = NCC[C@H](N)C(=O)O; Abu = CC[C@H](N)C(=O)O; Dap = NC[C@H](N)C(=O)O

What was measured:
Assay type in all cases: cell-based
[1] = tested on: Acinetobacter baumannii DSM 30008; settings: DSM 30008
Procedure, shortened: (§1)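 Peptides are tested in serial two-fold dilutions against about 10^6 CFU/mL in MH-II broth containing 0.002% P-80 (v/v, final). Plates incubate 18-20 h at 35° C, and the MIC is the lowest peptide level (μg/mL) showing no visible growth.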

[2] = tested on: Acinetobacter baumannii 872842; settings: 872842
Procedure, shortened: as §1

[3] = tested on: Enterobacter cloacae 848840; settings: 848840
Procedure, shortened: as §1

[4] = tested on: Klebsiella pneumoniae 968733; settings: 968733
Procedure, shortened: as §1

Escherichia coli 926415 = settings: 926415
Procedure, shortened: as §1

[5] = tested on: Pseudomonas aeruginosa ATCC 27853; settings: ATCC 27853
Procedure, shortened: as §1

[6] = tested on: Klebsiella pneumoniae SSI #3010; settings: SSI #3010
Procedure, shortened: as §1

[7] = tested on: Escherichia coli ATCC 25922; settings: ATCC 25922
Procedure, shortened: as §1

[8] = tested on: human red blood cells (hRBC); experiment: Hemolysis; settings: red cells of human, 1 h, 200
Procedure, shortened: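 Percent hemolysis relative to 2% Triton X-100 (100%) and PBS/10% water (0%), from blank-corrected OD540 of diluted supernatants. Peptides tested at 200 μg/mL against 20% (v/v) washed human erythrocytes, 1 h, 37° C, shaking at 300 rpm.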

Acinetobacter baumannii DSM 30008 MIC [1]	MIC [2]	MIC [3]	MIC [4]	MIC (Escherichia coli 926415)	Pseudomonas aeruginosa ATCC 27853 MIC [5]	Klebsiella pneumoniae SSI #3010 MIC [6]	Escherichia coli ATCC 25922 MIC [7]	MIC [1]	MIC [5]	MIC [6]	MIC [7]	SMILES	Hemolysis at 200 μg/mL [8]
0.03125 µg/mL	0.0625 µg/mL (≈ 0.0253 µM)	0.0625 µg/mL (≈ 0.0253 µM)	0.125 µg/mL (≈ 0.0506 µM)	0.0625 µg/mL (≈ 0.0253 µM)	0.0625 µg/mL	0.0625 µg/mL	0.0625 µg/mL					CC(=O)N[C@H](C(=O)N[C@H]1CSSC[C@@H](C(=O)N[C@@H](CO)C(=O)N[C@H](C)C(N)=O)NC(=O)[C@H](C(C)C)NC(=O)[C@H](CO)NC(=O)[C@H](Cc2c[nH]c3ccccc23)NC(=O)[C@H](CO)NC(=O)[C@@H](CCN)NC(=O)[C@H](CCC(=O)N[C@@H](CCN)C(=O)N[C@H](C(=O)N[C@@H](CN)C(=O)N[C@H]2CCNC(=O)[C@H]([C@@H](C)O)NC(=O)[C@H](CCN)NC(=O)[C@H](CCN)NC(=O)[C@H](CC(C)C)NC(=O)[C@@H](CC(C)C)NC(=O)[C@H](CCN)NC2=O)[C@@H](C)O)NC(=O)[C@H](CCN)NC(=O)[C@H](Cc2ccc(O)cc2)NC1=O)C(C)C [Ex. 378] (I: Ac-VCY[Dab]E[dDab]SWSVCS[dA]-NH2 / II: [Dab]T[Dap][Dab][Dab][dL]L[Dab][Dab]T; disulfide I:2-I:11; amide I:5-II:N; lactam II:4-II:C)	<1%
	0.25 µg/mL (≈ 0.103 µM)	0.125 µg/mL (≈ 0.0515 µM)	0.25 µg/mL (≈ 0.103 µM)	0.25 µg/mL (≈ 0.103 µM)				0.25 µg/mL (≈ 0.103 µM)	0.25 µg/mL (≈ 0.103 µM)	0.125 µg/mL (≈ 0.0515 µM)	0.0625 µg/mL (≈ 0.0257 µM)	CC(C)C[C@@H]1NC(=O)[C@@H](CC(C)C)NC(=O)[C@H](CCN)NC(=O)[C@@H](NC(=O)[C@H](CCN)NC(=O)[C@@H](NC(=O)[C@H](CCN)NC(=O)CC[C@@H]2NC(=O)[C@H](CCN)NC(=O)[C@H](Cc3ccc(O)cc3)NC(=O)[C@@H](NC(=O)[C@@H](O)C(C)C)CSSC(C)(C)[C@@H](C(=O)N[C@H](CO)[C@@H](C)O)NC(=O)[C@H](C(C)(C)C)NC(=O)[C@H](CO)NC(=O)[C@H](Cc3c[nH]c4ccccc34)NC(=O)[C@H](CCO)NC(=O)[C@@H](CCN)NC2=O)[C@@H](C)O)CCNC(=O)[C@H]([C@@H](C)O)NC(=O)[C@H](CCN)NC(=O)[C@H](CCN)NC1=O [Ex. 85] (I: H-[Hiv]CY[Dab]E[dDab][hSer]WS[Tle][Pen][Thr(ol)] / II: [Dab]T[Dab][Dab][Dab][dL]L[Dab][Dab]T; disulfide I:2-I:11; amide I:5-II:N; lactam II:4-II:C)	1%
	0.125 µg/mL (≈ 0.0531 µM)	0.25 µg/mL (≈ 0.106 µM)	0.5 µg/mL (≈ 0.212 µM)	0.125 µg/mL (≈ 0.0531 µM)				0.125 µg/mL (≈ 0.0531 µM)	0.25 µg/mL (≈ 0.106 µM)	0.125 µg/mL (≈ 0.0531 µM)	0.0625 µg/mL (≈ 0.0265 µM)	CC(C)C[C@@H]1NC(=O)[C@@H](CC(C)C)NC(=O)[C@H](CCN)NC(=O)[C@@H](NC(=O)[C@H](CN)NC(=O)[C@@H](NC(=O)[C@H](CCN)NC(=O)CC[C@@H]2NC(=O)[C@@H](CCN)NC(=O)CNC(=O)[C@H](CCN)NC(=O)[C@H](Cc3ccc(O)cc3)NC(=O)[C@@H](NC(=O)[C@@H](O)C(C)C)CSSC[C@@H](C(=O)N[C@H](C(N)=O)[C@@H](C)O)NC(=O)[C@H](C(C)(C)C)NC(=O)[C@H](CO)NC(=O)[C@H](Cc3c[nH]c4ccccc34)NC2=O)[C@@H](C)O)CCNC(=O)[C@H]([C@@H](C)O)NC(=O)[C@H](CCN)NC(=O)[C@H](CCN)NC1=O [Ex. 168] (I: H-[Hiv]CY[Dab]G[dDab]EWS[Tle]CT-NH2 / II: [Dab]T[Dap][Dab][Dab][dL]L[Dab][Dab]T; disulfide I:2-I:11; amide I:7-II:N; lactam II:4-II:C)	<1%
	0.125 µg/mL (≈ 0.0524 µM)	2 µg/mL (≈ 0.838 µM)	0.0625 µg/mL (≈ 0.0262 µM)	0.125 µg/mL (≈ 0.0524 µM)				0.0625 µg/mL (≈ 0.0262 µM)	0.125 µg/mL (≈ 0.0524 µM)	0.25 µg/mL (≈ 0.105 µM)	0.03125 µg/mL (≈ 0.0131 µM)	CC(C)C[C@@H]1NC(=O)[C@@H](CC(C)C)NC(=O)[C@H](CCN)NC(=O)[C@@H](NC(=O)[C@H](CCN)NC(=O)[C@@H](NC(=O)[C@H](CCN)NC(=O)CC[C@@H]2NC(=O)[C@H](CCN)NC(=O)[C@H](Cc3ccc(O)cc3)NC(=O)[C@@H](NC(=O)[C@@H](O)C(C)C)CSSC[C@@H](C(=O)N[C@H](CO)[C@@H](C)O)NC(=O)[C@H](C(C)C)NC(=O)[C@H](CO)NC(=O)[C@H](Cc3c[nH]c4ccccc34)NC(=O)[C@H](CCO)NC(=O)[C@@H](CCN)NC2=O)[C@@H](C)O)CCNC(=O)[C@H]([C@@H](C)O)NC(=O)[C@H](CCN)NC(=O)[C@H](CCN)NC1=O [Ex. 78] (I: H-[Hiv]CY[Dab]E[dDab][hSer]WSVC[Thr(ol)] / II: [Dab]T[Dab][Dab][Dab][dL]L[Dab][Dab]T; disulfide I:2-I:11; amide I:5-II:N; lactam II:4-II:C)	<1%
	0.125 µg/mL (≈ 0.0521 µM)	0.0625 µg/mL (≈ 0.0261 µM)	0.25 µg/mL (≈ 0.104 µM)	0.0625 µg/mL (≈ 0.0261 µM)				0.03125 µg/mL (≈ 0.013 µM)	0.0625 µg/mL (≈ 0.0261 µM)	0.03125 µg/mL (≈ 0.013 µM)	0.0625 µg/mL (≈ 0.0261 µM)	CC[C@@H]1NC(=O)[C@@H](CC(C)C)NC(=O)[C@H](CCN)NC(=O)[C@@H](NC(=O)[C@H](CN)NC(=O)[C@@H](NC(=O)[C@H](CCN)NC(=O)CC[C@@H]2NC(=O)[C@H]([C@@H](C)O)NC(=O)[C@H](Cc3ccc(O)cc3)NC(=O)[C@@H](NC(=O)[C@@H](NC(C)=O)C(C)C)CSSC[C@@H](C(=O)N[C@@H](CO)C(N)=O)NC(=O)[C@H](C(C)(C)C)NC(=O)[C@H](CO)NC(=O)[C@H](Cc3c[nH]c4ccccc34)NC(=O)[C@H](CCN)NC(=O)[C@@H](CCN)NC2=O)[C@@H](C)O)CCNC(=O)[C@H]([C@@H](C)O)NC(=O)[C@H](CCN)NC(=O)[C@H](CCN)NC1=O [Ex. 255] (I: Ac-VCYTE[dDab][Dab]WS[Tle]CS-NH2 / II: [Dab]T[Dap][Dab][Dab][dL][Abu][Dab][Dab]T; disulfide I:2-I:11; amide I:5-II:N; lactam II:4-II:C)	1%
	0.5 µg/mL (≈ 0.205 µM)	0.5 µg/mL (≈ 0.205 µM)	2 µg/mL (≈ 0.819 µM)	1 µg/mL (≈ 0.409 µM)				0.125 µg/mL (≈ 0.0512 µM)	0.25 µg/mL (≈ 0.102 µM)	0.25 µg/mL (≈ 0.102 µM)	0.125 µg/mL (≈ 0.0512 µM)	CC(C)C[C@@H]1NC(=O)[C@@H](CC(C)C)NC(=O)[C@H](CCN)NC(=O)[C@@H](NC(=O)[C@H](CCN)NC(=O)[C@@H](NC(=O)[C@H](CCN)NC(=O)CC[C@@H]2NC(=O)[C@@H](NC(=O)[C@H](Cc3ccc(O)cc3)NC(=O)[C@H](CCN)NC(=O)[C@@H](O)C(C)C)CSSC[C@@H](C(=O)N[C@H](C(=O)N[C@@H](CCC(=O)O)C(=O)N[C@H](CO)[C@@H](C)O)C(C)(C)C)NC(=O)[C@H](Cc3c[nH]c4ccccc34)NC(=O)[C@H]([C@@H](C)O)NC(=O)[C@@H](CCN)NC2=O)[C@@H](C)O)CCNC(=O)[C@H]([C@@H](C)O)NC(=O)[C@H](CCN)NC(=O)[C@H](CCN)NC1=O [Ex. 191] (I: H-[Hiv][Dab]YCE[dDab]TWC[Tle]E[Thr(ol)] / II: [Dab]T[Dab][Dab][Dab][dL]L[Dab][Dab]T; disulfide I:4-I:9; amide I:5-II:N; lactam II:4-II:C)	1%
	0.125 µg/mL (≈ 0.0539 µM)	0.125 µg/mL (≈ 0.0539 µM)	0.125 µg/mL (≈ 0.0539 µM)	0.5 µg/mL (≈ 0.216 µM)				0.03125 µg/mL (≈ 0.0135 µM)	0.25 µg/mL (≈ 0.108 µM)	0.0625 µg/mL (≈ 0.0269 µM)	0.03125 µg/mL (≈ 0.0135 µM)	CC(=O)N[C@H](C(=O)N[C@H]1CCCNC(=O)[C@@H]([C@H](C)O)NC(=O)[C@H](C(C)C)NC(=O)[C@H](CO)NC(=O)[C@H](Cc2c[nH]c3ccccc23)NC(=O)[C@H](CCO)NC(=O)[C@@H](CCN)NC(=O)[C@H](CCC(=O)N[C@@H](CCN)C(=O)N[C@H](C(=O)N[C@@H](CN)C(=O)N[C@H]2CCNC(=O)[C@H]([C@@H](C)O)NC(=O)[C@H](CCN)NC(=O)[C@H](CCN)NC(=O)[C@H](CC(C)C)NC(=O)[C@@H](CC(C)C)NC(=O)[C@H](CCN)NC2=O)[C@@H](C)O)NC(=O)[C@H](CCN)NC(=O)[C@H](Cc2ccc(O)cc2)NC1=O)C(C)C [Ex. 31] (I: Ac-V[Orn]Y[Dab]E[dDab][hSer]WSV[dT] / II: [Dab]T[Dap][Dab][Dab][dL]L[Dab][Dab]T; lactam I:2-I:C, II:4-II:C; amide I:5-II:N)	<1%
